# Active and inactive are the calls of the source.
# How the values were obtained:
# cells [1] = format: functional, cell-based; details: HEK-CNG
# [2] = HepG2 cell cytotoxicity, dose response, cytotoxicity control, ATP luminescence, cherry-pick, set 6 (AID 1053125); format: functional, cell-based
# cells [3] = details: HEK293
# [4] = Shn3 3'UTR reporter inhibitors, dose response, cell-based, Clone20 osteoblasts, firefly luciferase, cherry-picked (AID 624132); format: functional;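 also: firefly luciferase luminescence from reporter carrying the Shn3 3'UTR in osteoblasts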
# [5] = HepG2 cell cytotoxicity, dose response, cytotoxicity control for Shn3 inhibitor project, CellTiter-Glo, cherry-picked (AID 624134); format: functional, cell-based
# [6] = control 3'UTR Renilla luciferase suppression, dose response, counter-screen for Shn3 inhibitor project, cell-based, Clone20-Shn3RL, cherry-picked (AID 624133); format: functional
# [7] = inhibitors of PGC1a acetylation in cells, dose response, cell-based, cherry-picked samples (AID 720514); format: functional;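 also: potency may reflect raised or lowered acetylation signal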
# Paired box protein Pax-8 = Paired box protein Pax-8 (Homo sapiens, UniProt Q06710); experiment: inhibitors of PAX8-driven TPO luciferase reporter, dose response, RMG-I cells, cherry-pick (AID 687027); format: functional, cell-based;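 also: luciferase reporter driven by Pax8 target thyroperoxidase promoter measured by SteadyGlo luminescence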
# [8] = biological target: Hepatocyte nuclear factor 4-alpha (Homo sapiens, UniProt P41235); format: functional, cell-based;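 also: biochemical luminescence-based dose-response counterscreen measuring inhibition of HNF4 dimerization, run alongside a screen for blockers of ABHD5–perilipin-5 interaction; split luciferase complementation of HNF4 fusion proteins in cell lysate measuring dimerization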
# cells [9] = format: functional, cell-based
# [10] = biological target: T1, Trace amine-associated receptor 1 (Homo sapiens, UniProt Q96RJ0); experiment: Counterscreen for agonists of the human trace amine associated receptor 1 (hTAAR1): Fluorescence-based cell-based high throughput dose response assay to identify hTAAR1 agonist that also desensitize TAAR1 receptor response.; format: functional
# T1 sequence (Q96RJ0 whole entry): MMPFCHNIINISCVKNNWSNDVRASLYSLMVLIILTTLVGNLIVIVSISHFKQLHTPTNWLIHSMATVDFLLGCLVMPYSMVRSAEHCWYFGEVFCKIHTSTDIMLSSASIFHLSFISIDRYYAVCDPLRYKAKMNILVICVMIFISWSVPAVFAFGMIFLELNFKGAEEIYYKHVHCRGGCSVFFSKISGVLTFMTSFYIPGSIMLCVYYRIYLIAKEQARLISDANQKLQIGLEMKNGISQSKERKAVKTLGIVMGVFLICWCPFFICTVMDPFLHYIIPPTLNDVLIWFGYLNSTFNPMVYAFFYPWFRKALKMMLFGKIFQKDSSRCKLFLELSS
# cells [11] = format: functional, cell-based; remark: listed apart in the source
# [12] = biological target: T1, Trace amine-associated receptor 1; experiment: Fluorescence-based cell-based high throughput dose response assay to identify agonists of the human trace amine associated receptor 1 (TAAR1).; format: functional
# Caspase-6 = Caspase-6 (Homo sapiens, UniProt P55212); experiment: human caspase-6 inhibitors, dose response, biochemical, VEID-R110 fluorescence, cherry-pick (AID 720632)
# cells [13] = experiment: cells
# Major prion protein = Major prion protein (Homo sapiens, UniProt P04156); format: functional, cell-based
# [14] = growth suppression of PTEN-null colon cells, dose response, cell-based, HCT116 PTEN knockout (AID 1047); format: functional;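 also: HCT116 colon tumor cells with PTEN knocked out; cells exposed to compound for 60 hours before readout; potency for loss of cell viability measured by luminescence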
# [15] = growth suppression of beta-catenin-knockout colon cells, dose response, cell-based, HCT116, human colon tumor (AID 1045); format: functional;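 also: HCT116 colon tumor cells with beta catenin knocked out; cells exposed to compound for 60 hours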
# [16] = A375 melanoma cell cytotoxicity, dose response, counter-screen for MITF inhibitor project, CellTiter-Glo luminescence, dry powder, set 2 (AID 624489); format: functional, cell-based; details: A-375;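 also: actives are compounds lowering A375 viability meaning general cytotoxicity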
# [17] = A375 melanoma cell viability loss, dose response, counter-screen for MITF inhibitor project, CellTiter-Glo luminescence, dry powder, set 4 (AID 624364); format: functional, cell-based; details: A-375;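 also: A375 melanoma cells are MITF independent so this is a counter screen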
# INS1 = experiment: beta cell apoptosis inhibitors, cytokine rescue, dose response, luminescence, retest (AID 449756); format: functional, cell-based; details: Rattus norvegicus;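 also: cell death triggered by IL-1 beta plus TNF-alpha plus IFN-gamma mixture; protective hits raise ATP signal compared with cytokine alone wells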
# [18] = biological target: T2, Microphthalmia-associated transcription factor (Homo sapiens, UniProt O75030); experiment: TRPM1 promoter luciferase signal decrease, dose response, MITF inhibitor project, cell-based, SK-MEL-5, cherry-picked, set 3 (AID 493073); format: functional
# T2 sequence (O75030 whole entry): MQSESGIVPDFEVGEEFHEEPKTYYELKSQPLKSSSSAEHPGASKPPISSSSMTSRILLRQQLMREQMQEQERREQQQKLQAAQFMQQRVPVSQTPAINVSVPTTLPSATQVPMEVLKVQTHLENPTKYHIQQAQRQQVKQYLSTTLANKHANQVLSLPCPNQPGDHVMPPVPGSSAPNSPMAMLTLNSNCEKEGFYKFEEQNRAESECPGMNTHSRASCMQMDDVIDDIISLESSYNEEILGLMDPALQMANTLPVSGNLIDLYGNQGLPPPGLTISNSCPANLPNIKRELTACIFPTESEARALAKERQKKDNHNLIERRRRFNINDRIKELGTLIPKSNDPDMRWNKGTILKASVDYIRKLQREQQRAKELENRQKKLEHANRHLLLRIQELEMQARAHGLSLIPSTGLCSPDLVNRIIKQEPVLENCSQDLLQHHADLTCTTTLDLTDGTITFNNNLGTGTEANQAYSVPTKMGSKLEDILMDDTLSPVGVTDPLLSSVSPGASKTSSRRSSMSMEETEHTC
# [19] = biological target: COUP transcription factor 2 (Homo sapiens, UniProt P24468); experiment: Luminescence-based cell-based high throughput dose response assay to identify inhibitors of COUP-TFII (NR2F2).; format: functional;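 also: HEK293 cells transiently cotransfected with COUP-TFII expression vector and reporter; luciferase reporter luminescence driven by COUP-TFII from the pX2-168 reporter plasmid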
# [20] = biological target: T3, Disintegrin and metalloproteinase domain-containing protein 17 (Homo sapiens, UniProt P78536); experiment: ADAM17 protease inhibitors, dose response, counter-screen for ADAM10 exosite inhibitor project, biochemical, quenched FRET substrate (AID 743253)
# [21] = ADAM10 inhibitors, peptide cleavage, dose response, biochemical, QFRET (AID 743254);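 also: ADAM10 enzyme with the DM2 quenched FRET peptide as substrate; EDANS fluorescence gain as the protease cuts the substrate; inhibitor potency against ADAM10 proteolytic activity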
# [22] = cytotoxicity in HPDE-C7 cells, cell-based, fluorescence, HTS (AID 430); format: functional; details: Homo sapiens
# [23] = cytotoxicity in KRAS-transformed pancreatic duct cells, primary screen, cell-based, fluorescence, HTS (AID 431); format: functional; details: Homo sapiens;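 also: cell line used: HPDE-C7K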
# [24] = biological target: T4, Sentrin-specific protease 8 (Homo sapiens, UniProt Q96LD8); format: functional
# T4 sequence (Q96LD8 whole entry): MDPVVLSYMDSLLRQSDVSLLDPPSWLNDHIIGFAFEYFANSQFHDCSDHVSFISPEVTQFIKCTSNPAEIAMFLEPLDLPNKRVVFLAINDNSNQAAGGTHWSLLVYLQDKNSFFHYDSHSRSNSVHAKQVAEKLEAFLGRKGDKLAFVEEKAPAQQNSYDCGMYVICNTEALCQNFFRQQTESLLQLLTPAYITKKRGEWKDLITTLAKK
# [25] = biological target: Tyrosyl-DNA phosphodiesterase 2 (Homo sapiens, UniProt O95551); experiment: human TDP2 enzyme inhibitors, dose response, biochemical, epi absorbance, IC50 (AID 743297)
# [26] = biological target: T4, Sentrin-specific protease 8; format: functional; remark: listed apart in the source
# HEK293 [27] = experiment: cells; format: functional, cell-based; details: Homo sapiens
# HEK293 [28] = experiment: NOD2 signaling inhibitors in MDP-stimulated cells, cell-based, uHTS, luminescence (AID 2001); format: functional; details: Homo sapiens
# HEK293 [29] = experiment: NOD1 signaling inhibitors, primary screen, cell-based, luminescence, uHTS (AID 1578); format: functional; details: Homo sapiens
# HEK293 [30] = experiment: cells; format: functional, cell-based; details: Homo sapiens; remark: listed apart in the source
# [31] = biological target: Induced myeloid leukemia cell differentiation protein Mcl-1 (Homo sapiens, UniProt Q07820); format: functional
# [32] = inhibitors of firefly luciferase expression or activity, dose response, H4 neuroglioma cells, luminescence (AID 1990); format: functional, cell-based
# [33] = inhibitors of SNCA 5'UTR-driven reporter translation, confirmation, H4 neuroglioma cells, luminescence (AID 1988); format: functional, cell-based
# cells [34] = format: functional, cell-based; remark: listed apart in the source
# [35] = biological target: T5, Nuclear receptor subfamily 0 group B member 1 (Homo sapiens, UniProt P51843); format: functional, cell-based;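 also: HEK293T cells transfected with SF-1 and DAX-1 plus StAR promoter luciferase reporter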
# T5 sequence (P51843 whole entry): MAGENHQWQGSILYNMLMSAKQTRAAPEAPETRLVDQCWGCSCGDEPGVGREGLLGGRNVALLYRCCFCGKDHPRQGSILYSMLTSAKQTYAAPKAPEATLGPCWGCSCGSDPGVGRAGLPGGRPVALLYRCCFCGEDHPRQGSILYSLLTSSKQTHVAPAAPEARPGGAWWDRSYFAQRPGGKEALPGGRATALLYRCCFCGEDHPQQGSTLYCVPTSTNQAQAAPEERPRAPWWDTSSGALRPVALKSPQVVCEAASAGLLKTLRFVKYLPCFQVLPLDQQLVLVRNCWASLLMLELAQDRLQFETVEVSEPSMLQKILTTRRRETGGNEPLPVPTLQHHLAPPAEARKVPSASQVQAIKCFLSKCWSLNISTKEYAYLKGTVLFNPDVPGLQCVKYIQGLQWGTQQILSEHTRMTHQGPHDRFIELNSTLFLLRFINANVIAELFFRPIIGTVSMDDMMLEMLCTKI
# [36] = Luminescence Cell-Based Dose Response HTS to Identify Inhibitors of 5'UTR Stem-Loop Driven Prion Protein mRNA Translation in H4 Neuroglioblastoma Cells. [Related pubchem assays: 1827 (Project Summary), 1813 (Primary HTS)]; format: functional
# Galanin receptor type 3 = Galanin receptor type 3 (Homo sapiens, UniProt O60755); experiment: Fluorescence-based cell-based primary high throughput dose response assay to identify antagonists of the Galanin Receptor 3 (GalR3).; format: functional
# [37] = ADAM10 protease inhibitors, dose response, selectivity assay for ADAM17 exosite inhibitor project, biochemical, FRET peptide substrate, recombinant human ADAM10 (AID 743259);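 also: ADAM10 enzyme cleaving a FRET peptide substrate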
# [38] = biological target: T3, Disintegrin and metalloproteinase domain-containing protein 17; experiment: exosite inhibitors of ADAM17, dose response, biochemical (AID 743260)
compound,measurement,setting,value
Fc1ccc(N=C(S)NNc2ncc(C(F)(F)F)cc2Cl)c(F)c1,EC50,cells [1],> 29.9 µM (inactive)
S=C(NCC1CCCO1)N1CCN(Cc2ccccc2Cl)CC1 (stereo not given),AC50,[2],38.4 µM (active)
same,AC50,cells [3],> 24 µM (inactive)
C#CCN(C[C@@H]1[C@@H](OC(=O)NCC2CCCCC2)[C@@H](OC(=O)NCC2CCCCC2)Cn2c(=O)ccc(=O)n21)S(=O)(=O)c1ccc(C)cc1,AC50,[4],2.49 µM (active)
same,AC50,[5],6.53 µM (active)
same,AC50,[6],3.96 µM (active)
same,AC50,[7],1.65 µM (active)
same,AC50,Paired box protein Pax-8,3.03 µM (active)
same,IC50,[8],29.3 µM (inactive)
Cn1cccc1CNCCc1ccc(F)cc1,EC50,cells [9],> 29.9 µM (inactive)
same,IC50,[10],20 µM (inactive)
same,IC50,cells [11],> 29.9 µM (inactive)
same,EC50,[12],6.31 µM (active)
O=C(O)CCCC(=O)OCCCc1cc2ccccc2c(=O)o1,AC50,Caspase-6,1.51 µM (active)
COc1ccc(NC(=O)NNC(=O)COc2ccc3cc(Br)ccc3c2)cc1OC,IC50,cells [13],> 138 µM (inactive)
same,IC50,Major prion protein,5.33 µM (active)
CCN1c2ccccc2NC2N=C(OC)C(c3ccccc3)C21 (stereo not given),EC50,[14],8.12 µM (active)
same,EC50,[15],7.49 µM (active)
same,AC50,[16],29.7 µM (active)
same,AC50,[17],50.4 µM (active)
same,AC50,INS1,1.26 µM (active)
same,AC50,[18],7.51 µM (active)
Cc1ccc(C(=O)NC2CCCc3c2cnn3-c2ccc(F)cc2F)cn1 (stereo not given),AC50,[4],0.921 µM (active)
same,AC50,[5],2.34 µM (active)
same,AC50,[6],6.81 µM (active)
same,AC50,INS1,4.93 µM (active)
same,IC50,[19],3.66 µM (active)
Cc1nn(CC(=O)N/N=C/c2cccs2)c(C)c1[N+](=O)[O-],EC50,cells [9],> 29.9 µM (inactive)
same,IC50,[10],> 29.9 µM (inactive)
same,IC50,cells [11],> 29.9 µM (inactive)
same,EC50,[12],2.82 µM (active)
O=C1C(NCCCN2CCOCC2)=C(Nc2ccccc2)C(=O)c2ccccc21,AC50,[16],> 70 µM (inactive)
same,AC50,[17],> 70 µM (inactive)
C=C(C)COc1ccc(-c2n[nH]cc2-c2ccccc2OC)c(O)c1,IC50,[20],> 69.5 µM (inactive)
same,IC50,[21],10.6 µM (inactive)
same,EC50,[22],13.7 µM (active)
same,EC50,[23],11.3 µM (active)
Cc1ccc(C(=O)Nc2c(-c3ccc(Cl)cc3)n[nH]c2O)cc1,IC50,[24],63.5 µM (inactive)
same,IC50,[25],> 128 µM (inactive)
same,IC50,[26],39.9 µM (active)
CCN1C(C#N)=C(C#N)N=C(C)CC1(C)C,AC50,[7],30.5 µM (active)
CCN(CC)S(=O)(=O)c1cccc(NC(=O)CNc2cccc(S(=O)(=O)N3CCCC3)c2)c1,IC50,HEK293 [27],2.55 µM (active)
same,IC50,HEK293 [28],3.47 µM (active)
same,AC50,[4],0.317 µM (active)
same,AC50,[5],1.11 µM (active)
same,AC50,[6],33.8 µM (active)
same,AC50,INS1,3.73 µM (active)
same,EC50,HEK293 [29],0.56 µM (active)
same,IC50,HEK293 [30],14.6 µM (active)
same,IC50,[19],3.33 µM (active)
CN(C)c1ccc(NC(=O)c2cn(-c3ccccc3)nc2-c2cccs2)cc1,IC50,[31],2.48 µM (not active)
same,IC50,[20],> 69.5 µM (inactive)
same,IC50,[21],> 69.5 µM (inactive)
CN1CCN(c2ccc(NC(=O)c3ccc4ccccc4c3)cc2)CC1,EC50,[32],7.8 µM (inconclusive)
same,EC50,[33],9.94 µM (inconclusive)
same,IC50,cells [34],> 67.6 µM (inactive)
same,IC50,[35],> 67.6 µM (inactive)
same,EC50,[36],8.96 µM (inconclusive)
CCOc1nc(C#N)nc(N2CCCCC2)n1,IC50,Galanin receptor type 3,1.09 µM (active)
same,EC50,cells [1],> 29.9 µM (inactive)
COc1ccc(-c2nc3ccc(Br)cn3c2Cc2cccc(F)c2)cc1OC,IC50,cells [13],> 138 µM (inactive)
same,IC50,Major prion protein,6.96 µM (active)
c1ccc(-n2c(SCc3cccc4ccccc34)nnc2-c2ccccn2)cc1,IC50,[37],24.1 µM (inactive)
same,IC50,[38],> 69.4 µM (inactive)
Cc1cccc(NC2=C(NCCO)C(=O)c3ccccc3C2=O)c1,AC50,Caspase-6,9.36 µM (active)

# — ChEMBL document CHEMBL1201862, “PubChem BioAssay data set” (2004)
